Test results as given in ChEMBL document CHEMBL5252578, “seco-Pregnane Glycosides from Australian Caustic Vine (Cynanchum viminale subsp. australe)” (J Nat Prod, 2023).
The source made the active and inactive calls. No cut-off for these calls is given here.

Tests used:
Sarcoptes scabiei [1] = test: Miticidal activity against Sarcoptes scabiei eggs assessed as effect on egg hatching at 100 uM measured upto 48 hrs by microscopic analysis; type: functional, organism-based
Sarcoptes scabiei [2] = test: Miticidal activity against Sarcoptes scabiei Larva assessed as effect on larval mortality at 100 uM measured upto 48 hrs by microscopic analysis; type: functional, organism-based
Sarcoptes scabiei [3] = test: Miticidal activity against Sarcoptes scabiei assessed as mortality rate at 100 uM measured upto 48 hrs by microscopic analysis; type: functional
[4] = molecular target: Cholinesterase (Equus caballus) (UniProt P81908); test: Inhibition of equine BuChE at 100 uM using […] as substrate incubated for 29 mins by Ellman's method relative to control
Sequence of Cholinesterase (Equus caballus) (P81908 whole entry): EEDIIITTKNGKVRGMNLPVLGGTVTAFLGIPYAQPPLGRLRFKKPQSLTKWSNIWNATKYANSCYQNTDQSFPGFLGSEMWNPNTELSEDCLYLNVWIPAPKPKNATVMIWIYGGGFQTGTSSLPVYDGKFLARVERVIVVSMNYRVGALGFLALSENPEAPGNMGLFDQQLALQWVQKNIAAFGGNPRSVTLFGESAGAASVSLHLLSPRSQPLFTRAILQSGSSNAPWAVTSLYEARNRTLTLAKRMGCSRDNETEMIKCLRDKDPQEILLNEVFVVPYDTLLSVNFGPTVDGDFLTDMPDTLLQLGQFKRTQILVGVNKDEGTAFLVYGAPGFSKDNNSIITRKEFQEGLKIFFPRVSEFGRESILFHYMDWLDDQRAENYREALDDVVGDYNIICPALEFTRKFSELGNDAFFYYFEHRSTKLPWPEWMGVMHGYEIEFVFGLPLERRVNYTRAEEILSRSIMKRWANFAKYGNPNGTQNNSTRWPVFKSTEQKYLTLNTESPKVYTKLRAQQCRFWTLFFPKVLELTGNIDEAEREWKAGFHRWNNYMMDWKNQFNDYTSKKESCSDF

NFF = test: Cytotoxicity against human NFF cells assessed as cell growth inhibition measured after 6 days by SRB assay; type: functional, cell-based; conditions: 144 h
HT-29 = test: Cytotoxicity against human HT-29 cells assessed as cell growth inhibition measured after 6 days by SRB assay; type: functional, cell-based; conditions: HT-29, 144 h
MM96L = test: Cytotoxicity against human MM96L cells assessed as cell growth inhibition measured after 6 days by SRB assay; type: functional, cell-based; conditions: 144 h
MCF7 = test: Cytotoxicity against human MCF7 cells assessed as cell growth inhibition measured after 6 days by SRB assay; type: functional, cell-based; conditions: MCF7, 144 h
HeLa = test: Cytotoxicity against human HeLa cells assessed as cell growth inhibition measured after 6 days by SRB assay; type: functional, cell-based; conditions: 144 h

| Structure (SMILES) | Activity (Sarcoptes scabiei [1]) | Activity (Sarcoptes scabiei [2]) | Activity (Sarcoptes scabiei [3]) | inhibition [4] | IC50 (NFF) | IC50 (HT-29) | IC50 (MM96L) | IC50 (MCF7) | IC50 (HeLa) |
| --- | --- | --- | --- | --- | --- | --- | --- | --- | --- |
| CO[C@H]1C[C@H](O[C@H]2[C@@H](OC)C[C@H](O[C@H]3CC[C@@]4(C)C(=CCC(=O)[C@@H]4C[C@@H](OC(C)=O)[C@@]4(C)C(=O)CC[C@H]4C(C)=O)C3)O[C@@H]2C)O[C@H](C)[C@H]1O | inactive | inactive | 30% | 13.5% |  |  |  |  |  |
| CO[C@H]1C[C@H](O[C@H]2CC[C@@]3(C)C(=CCC(=O)[C@@H]3C[C@@H](OC(C)=O)[C@@]3(C)C(=O)CC[C@H]3C(C)=O)C2)O[C@H](C)[C@H]1O[C@H]1C[C@@H](OC)[C@H](O)[C@@H](C)O1 | inactive | inactive | inactive | 2.64% |  |  |  |  |  |
| CC(=O)O[C@H](C[C@H]1C(=O)CC=C2C[C@@H](O)CC[C@@]21C)[C@@]1(C)C(=O)CC[C@H]1C(C)=O |  |  |  | 7.72% |  |  |  |  |  |
| C[C@@]1([C@@H](C[C@H]2C(=O)CC=C3C[C@@H](O)CC[C@@]32C)OC(=O)c2ccccc2)C(=O)[C@@]2(C)CC[C@@H]1O2 |  |  |  | 14% | > 10 µM | > 10 µM | > 10 µM | > 10 µM | > 10 µM |
